# Measurements reported in patent publication US6953786B2, “Compositions comprising plant-derived polyphenolic compounds and inhibitors of reactive oxygen species and methods of using thereof” (The Regents of the University of California, priority 2002, dated 2005).
# Residues, ends and D or L forms follow the SMILES beside them. *: point of attachment. Cbz = O=C(OCc1ccccc1)*
# Tests used:
# NF-κB [1] = assay: NF-κB DNA binding activity (EMSA); type: cell-based, rat; details: BSp73AS, 6 hours; polyphenols 100 μM, MG-132 20 μM
# Protocol: In order to determine the role of activated NF-κB in the regulation of apoptosis caused by the polyphenolic compound, the following assay was conducted. BSp73AS cells were cultured for 6 hours and Mia PACA-2 cells were cultured in the absence of serum or growth factors for 24 hours in the absence (controls) or presence of rutin, quercetin, trans-resveratrol, or genistein, each at 100 μM and 20 μM proteosome inhibitor MG-132. Nuclear proteins were isolated and analyzed for NF-κB DNA binding activity with electrophoretic mobility shift assay (EMSA). Specifically, aliquots of nuclear extracts with equal amount of protein, about 2 to about 10 μg, were mixed in 20 μl reactions with a buffer comprising 10 mM HEPES (pH 7.6), 50 mM KCl, 0.1 mM EDTA, 1 mM DTT, 10% (vol/vol) glycerol and 3 μg poly[d (I-C)]. After aliquots were equilibrated on ice for 5 minutes, binding reactions were stared by addition of 20-60,000 counts/min (20 fM) of ^32P-labeled DNA probes and allowed to proceed for 25-30 minutes at room temperature or up to 1 hour on ice. The oligonucleotide probe containing the κB binding motif (underlined) was annealed to the complementary oligonucleotide with a 5′-G overhang and end-labeled using Klenow DNA polymerase I. The samples were electrophoresed at room temperature in 0.5×TBE buffer (1×TBE 89 mM Tris base, 89 mM boric acid and 2 mM EDTA) on nondenaturing 4.5% polyacrylamide gel at 200 V. Gels were dried and directly analyzed in the PhosphorImager (Molecular Dynamics, Sunnyvale, Calif.). The experiment was repeated twice.
# NF-κB [2] = assay: NF-κB DNA binding activity (EMSA / gel shift); type: cell-based, human; details: Mia PACA-2, 24 hours, no serum; polyphenols 100 μM, MG-132 20 μM
# Protocol: In order to determine the role of activated NF-κB in the regulation of apoptosis caused by the polyphenolic compound, the following assay was conducted. BSp73AS cells were cultured for 6 hours and Mia PACA-2 cells were cultured in the absence of serum or growth factors for 24 hours in the absence (controls) or presence of rutin, quercetin, trans-resveratrol, or genistein, each at 100 μM and 20 μM proteosome inhibitor MG-132. Nuclear proteins were isolated and analyzed for NF-κB DNA binding activity with electrophoretic mobility shift assay (EMSA).
# Specifically, aliquots of nuclear extracts with equal amount of protein, about 2 to about 10 μg, were mixed in 20 μl reactions with a buffer comprising 10 mM HEPES (pH 7.6), 50 mM KCl, 0.1 mM EDTA, 1 mM DTT, 10% (vol/vol) glycerol and 3 μg poly[d (I-C)]. After aliquots were equilibrated on ice for 5 minutes, binding reactions were stared by addition of 20-60,000 counts/min (20 fM) of ^32P-labeled DNA probes and allowed to proceed for 25-30 minutes at room temperature or up to 1 hour on ice. The oligonucleotide probe
# containing the κB binding motif (underlined) was annealed to the complementary oligonucleotide with a 5′-G overhang and end-labeled using Klenow DNA polymerase I. The samples were electrophoresed at room temperature in 0.5×TBE buffer (1×TBE 89 mM Tris base, 89 mM boric acid and 2 mM EDTA) on nondenaturing 4.5% polyacrylamide gel at 200 V. Gels were dried and directly analyzed in the PhosphorImager (Molecular Dynamics, Sunnyvale, Calif.). The experiment was repeated twice.
# To study the effects of combinations of DPI and polyphenolic compounds on serum-induced activation of NF-κB and protection from apoptosis, the following assay was conducted. Mia PACA-2 cells were cultured for 72 hours in the presence of serum with or without 100 μM trans-resveratrol, 15 μM DPI, a combination of trans-resveratrol, 100 μM genistein, or a combination of genistein and DPI. NF-κB binding activity was measured in nuclear extracts by gel shift assay as described above.
# To determine the effects of LY29400 and DPI on NF-κB activation, Mia PACA-2 cells were cultured for 72 hours in the presence of serum and 15 μM DPI with or without 50 μM LY294002. NF-κB DNA binding activity was measured in nuclear extracts by gel shift assay as described above.
# [3] = tested on: BSp73AS and Mia PACA-2 cells; assay: Caspase-3 activity and annexin staining with MG-132 (FIG. 14C); type: cell-based; details: MG-132 20 μM
smiles,measurement,setting,value
"CC(C)C[C@@H](C=O)NC(=O)[C@H](CC(C)C)NC(=O)[C@H](CC(C)C)NC(=O)OCc1ccccc1 [MG-132, reference compound] (Cbz-Leu-Leu-Leu-aldehyde)",NF-κB activation (DNA binding),NF-κB [1],blocks NF-κB activation
same,NF-κB activation (DNA binding),NF-κB [2],blocks NF-κB activation
same,caspase-3 activity,[3],small increase in caspase-3 activity
same,apoptosis (annexin staining),[3]; polyphenols 100 μM,does not increase apoptosis rates to the same extent as trans-resveratrol
